Measured values as given in ChEMBL document CHEMBL5634096, “Design, synthesis and bioevaluation of PI3Kα-selective inhibitors as potential colorectal cancer drugs” (Eur J Med Chem, 2023).
Active and inactive are the calls of the source. The calls are words filed in the database; no cut-off is given here.

Experiments:
[1] = molecular target: Phosphatidylinositol 4,5-bisphosphate 3-kinase catalytic subunit alpha isoform (Homo sapiens, UniProt P42336); test: Inhibition of PI3Kalpha (unknown origin) by ADP-Glo luminescent kinase assay
Chain of Phosphatidylinositol 4,5-bisphosphate 3-kinase catalytic subunit alpha isoform (P42336 whole entry, canonical isoform): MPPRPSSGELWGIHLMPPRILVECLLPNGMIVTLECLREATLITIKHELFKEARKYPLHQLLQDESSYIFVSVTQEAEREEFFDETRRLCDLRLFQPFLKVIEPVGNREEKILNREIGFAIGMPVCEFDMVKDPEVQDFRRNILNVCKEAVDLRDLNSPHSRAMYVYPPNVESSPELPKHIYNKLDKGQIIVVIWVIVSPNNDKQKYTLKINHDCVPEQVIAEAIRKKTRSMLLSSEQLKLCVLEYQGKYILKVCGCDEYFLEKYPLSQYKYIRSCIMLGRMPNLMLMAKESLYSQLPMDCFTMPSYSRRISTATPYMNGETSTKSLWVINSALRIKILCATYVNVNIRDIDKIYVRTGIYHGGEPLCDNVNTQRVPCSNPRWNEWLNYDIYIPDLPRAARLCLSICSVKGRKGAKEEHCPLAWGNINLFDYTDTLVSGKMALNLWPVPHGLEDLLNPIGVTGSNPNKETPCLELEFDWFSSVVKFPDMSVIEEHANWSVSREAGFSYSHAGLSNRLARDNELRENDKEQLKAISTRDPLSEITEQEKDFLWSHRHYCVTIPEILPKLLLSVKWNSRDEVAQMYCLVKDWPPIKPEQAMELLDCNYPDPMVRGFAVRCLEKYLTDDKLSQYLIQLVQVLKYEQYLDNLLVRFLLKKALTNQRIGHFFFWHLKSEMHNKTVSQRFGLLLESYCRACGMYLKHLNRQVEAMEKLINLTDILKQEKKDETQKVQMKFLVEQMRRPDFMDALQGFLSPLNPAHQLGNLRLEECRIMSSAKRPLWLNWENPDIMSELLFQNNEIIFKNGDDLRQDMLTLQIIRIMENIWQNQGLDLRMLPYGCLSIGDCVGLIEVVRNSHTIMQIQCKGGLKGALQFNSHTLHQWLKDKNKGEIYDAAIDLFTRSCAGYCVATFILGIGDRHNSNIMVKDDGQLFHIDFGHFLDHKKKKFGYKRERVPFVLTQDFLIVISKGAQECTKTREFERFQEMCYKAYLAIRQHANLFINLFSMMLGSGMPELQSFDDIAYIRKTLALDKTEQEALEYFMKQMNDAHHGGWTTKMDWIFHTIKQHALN

[2] = Metabolic stability in Sprague-Dawley rat liver microsomes assessed as intrinsic clearance at 5 ug/ml incubated for 1 hr in presence of NADPH by LC-MS/MS analysis; type: ADME, Microsome; settings: dose 5 µg/ml
[3] = Volume of distribution in Sprague-Dawley rat at 5 mg/kg, iv measured upto 24 hrs by LC-MS analysis; type: ADME, organism-based; settings: in vivo
MCF7 [4] = test: Antiproliferative activity against human MCF7 cells expressing PIK3CA with E545K mutation assessed as reduction in cell viability incubated for 24 to 48 hrs by CCK-8 assay; type: functional, cell-based
[5] = AUC (0 to infinity) in Sprague-Dawley rat at 5 mg/kg, iv measured upto 24 hrs by LC-MS analysis; type: ADME, organism-based; settings: in vivo
[6] = Metabolic stability in Sprague-Dawley rat liver microsomes assessed as compound remaining at 5 ug/ml incubated for 1 hr in presence of NADPH by LC-MS/MS analysis; type: ADME, Microsome; settings: at 5 µg/mL, read-out: Stability
[7] = molecular target: Phosphatidylinositol 4,5-bisphosphate 3-kinase catalytic subunit gamma isoform (Homo sapiens, UniProt P48736); test: Inhibition of PI3Kgamma (unknown origin) by ADP-Glo luminescent kinase assay
Chain of Phosphatidylinositol 4,5-bisphosphate 3-kinase catalytic subunit gamma isoform (P48736 whole entry, canonical isoform): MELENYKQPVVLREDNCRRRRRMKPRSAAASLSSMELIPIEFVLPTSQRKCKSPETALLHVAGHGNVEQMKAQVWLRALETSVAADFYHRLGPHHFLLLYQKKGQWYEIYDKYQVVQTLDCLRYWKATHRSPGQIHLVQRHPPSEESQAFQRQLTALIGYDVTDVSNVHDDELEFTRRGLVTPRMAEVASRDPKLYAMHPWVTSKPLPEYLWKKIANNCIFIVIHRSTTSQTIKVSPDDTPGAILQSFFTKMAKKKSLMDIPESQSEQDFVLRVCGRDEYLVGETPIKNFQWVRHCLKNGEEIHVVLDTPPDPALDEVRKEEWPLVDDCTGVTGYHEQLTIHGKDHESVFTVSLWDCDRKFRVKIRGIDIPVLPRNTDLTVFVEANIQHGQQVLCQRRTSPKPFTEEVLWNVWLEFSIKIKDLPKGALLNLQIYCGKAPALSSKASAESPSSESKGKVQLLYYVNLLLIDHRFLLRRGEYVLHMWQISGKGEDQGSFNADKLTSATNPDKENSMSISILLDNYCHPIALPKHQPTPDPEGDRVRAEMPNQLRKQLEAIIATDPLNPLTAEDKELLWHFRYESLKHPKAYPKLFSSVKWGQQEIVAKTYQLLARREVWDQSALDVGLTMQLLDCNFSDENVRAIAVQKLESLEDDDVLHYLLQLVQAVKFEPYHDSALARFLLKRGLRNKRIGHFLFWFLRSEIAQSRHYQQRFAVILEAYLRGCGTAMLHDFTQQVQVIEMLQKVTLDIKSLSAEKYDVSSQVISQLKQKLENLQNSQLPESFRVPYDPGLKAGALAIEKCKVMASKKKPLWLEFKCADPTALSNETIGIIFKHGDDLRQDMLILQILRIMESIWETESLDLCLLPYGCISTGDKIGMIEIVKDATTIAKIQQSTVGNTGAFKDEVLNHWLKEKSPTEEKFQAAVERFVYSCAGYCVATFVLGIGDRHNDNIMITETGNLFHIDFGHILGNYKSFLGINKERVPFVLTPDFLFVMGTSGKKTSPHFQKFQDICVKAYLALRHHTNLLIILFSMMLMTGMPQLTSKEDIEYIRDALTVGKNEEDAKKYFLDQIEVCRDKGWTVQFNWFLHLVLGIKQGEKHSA

[8] = Cytotoxicity against human MCF-10A cells assessed as reduction in cell viability incubated for 24 to 48 hrs by CCK-8 assay; type: toxicity, cell-based
Cytochrome P450 3A4 = Cytochrome P450 3A4 (Homo sapiens, UniProt P08684); test: Inhibition of CYP3A4 in human liver microsomes using midazolam as substrate pre-incubated for 30 mins followed by substrate addition and measured after 15 mins in presence of NADPH by LC/MS analysis; type: ADME, Microsome
Chain of Cytochrome P450 3A4 (P08684 whole entry): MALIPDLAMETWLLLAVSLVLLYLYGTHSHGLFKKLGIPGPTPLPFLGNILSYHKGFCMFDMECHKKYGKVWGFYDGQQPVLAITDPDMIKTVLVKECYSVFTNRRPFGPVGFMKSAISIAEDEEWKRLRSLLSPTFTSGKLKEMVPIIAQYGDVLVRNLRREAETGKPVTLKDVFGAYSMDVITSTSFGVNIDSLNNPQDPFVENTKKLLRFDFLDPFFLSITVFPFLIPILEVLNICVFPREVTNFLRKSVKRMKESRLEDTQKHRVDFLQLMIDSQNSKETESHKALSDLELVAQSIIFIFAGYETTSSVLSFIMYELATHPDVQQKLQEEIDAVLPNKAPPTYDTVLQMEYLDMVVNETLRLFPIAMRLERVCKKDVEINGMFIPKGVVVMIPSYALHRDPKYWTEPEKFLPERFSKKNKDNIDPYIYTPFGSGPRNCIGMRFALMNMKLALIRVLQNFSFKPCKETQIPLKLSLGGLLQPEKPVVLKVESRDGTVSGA

MDA-MB-231 = test: Antiproliferative activity against human MDA-MB-231 cells assessed as reduction in cell viability incubated for 24 to 48 hrs by CCK-8 assay; type: functional, cell-based
[9] = Half life in Sprague-Dawley rat at 5 mg/kg, iv measured upto 24 hrs by LC-MS analysis; type: ADME, organism-based; settings: in vivo
[10] = molecular target: T1, Phosphatidylinositol 4,5-bisphosphate 3-kinase catalytic subunit delta isoform (Homo sapiens, UniProt O00329); test: Inhibition of PI3Kdelta (unknown origin) by ADP-Glo luminescent kinase assay
T1 sequence (O00329 whole entry): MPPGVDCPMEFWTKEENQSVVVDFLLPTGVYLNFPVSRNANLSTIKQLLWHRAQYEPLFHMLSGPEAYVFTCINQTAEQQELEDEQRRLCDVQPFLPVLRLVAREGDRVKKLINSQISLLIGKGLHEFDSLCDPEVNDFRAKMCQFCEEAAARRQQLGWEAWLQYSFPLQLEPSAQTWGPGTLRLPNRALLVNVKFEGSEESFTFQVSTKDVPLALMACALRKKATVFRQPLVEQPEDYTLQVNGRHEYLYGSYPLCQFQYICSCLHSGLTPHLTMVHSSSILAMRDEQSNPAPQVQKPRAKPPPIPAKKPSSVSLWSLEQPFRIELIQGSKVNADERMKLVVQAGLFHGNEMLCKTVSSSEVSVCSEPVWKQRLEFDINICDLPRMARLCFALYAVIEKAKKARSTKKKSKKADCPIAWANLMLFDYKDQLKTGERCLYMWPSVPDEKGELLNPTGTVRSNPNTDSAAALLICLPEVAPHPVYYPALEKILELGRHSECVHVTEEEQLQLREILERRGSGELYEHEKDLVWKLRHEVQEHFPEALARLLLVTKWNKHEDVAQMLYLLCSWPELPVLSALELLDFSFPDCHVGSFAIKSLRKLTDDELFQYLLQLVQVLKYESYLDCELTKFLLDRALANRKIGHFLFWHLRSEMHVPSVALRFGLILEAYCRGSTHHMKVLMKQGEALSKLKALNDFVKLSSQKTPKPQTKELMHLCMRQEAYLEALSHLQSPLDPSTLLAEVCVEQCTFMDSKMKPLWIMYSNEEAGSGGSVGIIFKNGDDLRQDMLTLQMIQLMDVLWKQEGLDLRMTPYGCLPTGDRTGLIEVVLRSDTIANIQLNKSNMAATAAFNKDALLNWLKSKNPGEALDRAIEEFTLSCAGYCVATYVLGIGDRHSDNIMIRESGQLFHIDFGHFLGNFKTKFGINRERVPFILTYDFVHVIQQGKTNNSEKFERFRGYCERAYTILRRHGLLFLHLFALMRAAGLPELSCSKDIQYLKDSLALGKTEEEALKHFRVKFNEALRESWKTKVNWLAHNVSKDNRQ

[11] = MRT (0 to t) in Sprague-Dawley rat at 5 mg/kg, iv measured upto 24 hrs by LC-MS analysis; type: ADME, organism-based; settings: in vivo
[12] = AUC (0 to t) in Sprague-Dawley rat at 5 mg/kg, iv measured upto 24 hrs by LC-MS analysis; type: ADME, organism-based; settings: in vivo
Cytochrome P450 2D6 = Cytochrome P450 2D6 (Homo sapiens, UniProt P10635); test: Inhibition of CYP2D6 in human liver microsomes using dextromethorphan as substrate pre-incubated for 30 mins followed by substrate addition and measured after 15 mins in presence of NADPH by LC/MS analysis; type: ADME, Microsome
Chain of Cytochrome P450 2D6 (P10635 whole entry): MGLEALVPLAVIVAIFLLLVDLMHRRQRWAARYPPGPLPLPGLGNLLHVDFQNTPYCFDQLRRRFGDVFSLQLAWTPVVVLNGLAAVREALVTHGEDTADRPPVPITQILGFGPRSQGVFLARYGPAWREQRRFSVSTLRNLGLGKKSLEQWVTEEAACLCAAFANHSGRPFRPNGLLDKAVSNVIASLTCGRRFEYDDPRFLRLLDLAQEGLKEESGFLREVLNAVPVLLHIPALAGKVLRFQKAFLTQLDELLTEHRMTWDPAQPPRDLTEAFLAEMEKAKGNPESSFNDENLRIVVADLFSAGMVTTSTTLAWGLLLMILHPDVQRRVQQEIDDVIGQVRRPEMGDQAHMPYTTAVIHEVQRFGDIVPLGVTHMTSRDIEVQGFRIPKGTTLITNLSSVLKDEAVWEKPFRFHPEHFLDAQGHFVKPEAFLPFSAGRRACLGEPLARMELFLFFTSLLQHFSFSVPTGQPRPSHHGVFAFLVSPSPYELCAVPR

Cytochrome P450 2C19 = Cytochrome P450 2C19 (Homo sapiens, UniProt P33261); test: Inhibition of CYP2C19 in human liver microsomes using omeprazole as substrate pre-incubated for 30 mins followed by substrate addition and measured after 15 mins in presence of NADPH by LC/MS analysis; type: ADME, Microsome
Chain of Cytochrome P450 2C19 (P33261 whole entry): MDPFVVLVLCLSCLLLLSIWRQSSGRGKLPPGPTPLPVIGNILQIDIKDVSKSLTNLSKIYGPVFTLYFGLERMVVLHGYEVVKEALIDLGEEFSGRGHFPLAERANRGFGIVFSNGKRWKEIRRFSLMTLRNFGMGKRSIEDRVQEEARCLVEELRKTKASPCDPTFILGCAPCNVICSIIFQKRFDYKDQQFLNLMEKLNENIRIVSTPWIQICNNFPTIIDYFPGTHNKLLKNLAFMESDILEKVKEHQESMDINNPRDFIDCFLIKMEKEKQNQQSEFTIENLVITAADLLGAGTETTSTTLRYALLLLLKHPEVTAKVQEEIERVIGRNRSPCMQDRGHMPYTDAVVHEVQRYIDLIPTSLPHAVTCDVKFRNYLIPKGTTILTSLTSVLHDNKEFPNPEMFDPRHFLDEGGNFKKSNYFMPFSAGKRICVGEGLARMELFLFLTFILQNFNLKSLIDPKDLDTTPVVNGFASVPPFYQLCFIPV

Cytochrome P450 1A2 = Cytochrome P450 1A2 (Homo sapiens, UniProt P05177); test: Inhibition of CYP1A2 in human liver microsomes using phenacetin as substrate pre-incubated for 30 mins followed by substrate addition and measured after 15 mins in presence of NADPH by LC/MS analysis; type: ADME, Microsome
[13] = Cmax in Sprague-Dawley rat at 5 mg/kg, iv measured upto 24 hrs by LC-MS analysis; type: ADME, organism-based; settings: in vivo
[14] = MRT (0 to infinity) in Sprague-Dawley rat at 5 mg/kg, iv measured upto 24 hrs by LC-MS analysis; type: ADME, organism-based; settings: in vivo
SW-620 = test: Antiproliferative activity against human SW-620 cells assessed as reduction in cell viability incubated for 24 to 48 hrs by CCK-8 assay; type: functional, cell-based
HCT-116 [15] = test: Antiproliferative activity against human HCT-116 cells expressing PIK3CA with H1047R mutation assessed as reduction in cell viability incubated for 24 to 48 hrs by CCK-8 assay; type: functional, cell-based
HCT-116 [16] = test: Induction of apoptosis in human HCT-116 cells assessed as increased total apoptotic cells at 6 uM incubated for 48 hrs by Annexin V-FITC and propidium iodide staining based flow cytometry analysis (reference value: 4.22 %); type: functional
[17] = Clearance in Sprague-Dawley rat at 5 mg/kg, iv measured upto 24 hrs by LC-MS analysis; type: ADME, organism-based; settings: in vivo
[18] = Metabolic stability in Sprague-Dawley rat liver microsomes assessed as half life at 5 ug/ml incubated for 1 hr in presence of NADPH by LC-MS/MS analysis; type: ADME, Microsome; settings: dose 5 µg/ml
[19] = Metabolic stability in artificial gastrointestinal fluid assessed as compound remaining measured upto 8 hrs by LC-MS/MS analysis; type: ADME
[20] = Cytotoxicity against human NCM460 cells assessed as reduction in cell viability incubated for 24 to 48 hrs by CCK-8 assay; type: toxicity, cell-based
[21] = molecular target: Phosphatidylinositol 4,5-bisphosphate 3-kinase catalytic subunit beta isoform (Homo sapiens, UniProt P42338); test: Inhibition of PI3Kbeta (unknown origin) by ADP-Glo luminescent kinase assay
Chain of Phosphatidylinositol 4,5-bisphosphate 3-kinase catalytic subunit beta isoform (P42338 whole entry, canonical isoform): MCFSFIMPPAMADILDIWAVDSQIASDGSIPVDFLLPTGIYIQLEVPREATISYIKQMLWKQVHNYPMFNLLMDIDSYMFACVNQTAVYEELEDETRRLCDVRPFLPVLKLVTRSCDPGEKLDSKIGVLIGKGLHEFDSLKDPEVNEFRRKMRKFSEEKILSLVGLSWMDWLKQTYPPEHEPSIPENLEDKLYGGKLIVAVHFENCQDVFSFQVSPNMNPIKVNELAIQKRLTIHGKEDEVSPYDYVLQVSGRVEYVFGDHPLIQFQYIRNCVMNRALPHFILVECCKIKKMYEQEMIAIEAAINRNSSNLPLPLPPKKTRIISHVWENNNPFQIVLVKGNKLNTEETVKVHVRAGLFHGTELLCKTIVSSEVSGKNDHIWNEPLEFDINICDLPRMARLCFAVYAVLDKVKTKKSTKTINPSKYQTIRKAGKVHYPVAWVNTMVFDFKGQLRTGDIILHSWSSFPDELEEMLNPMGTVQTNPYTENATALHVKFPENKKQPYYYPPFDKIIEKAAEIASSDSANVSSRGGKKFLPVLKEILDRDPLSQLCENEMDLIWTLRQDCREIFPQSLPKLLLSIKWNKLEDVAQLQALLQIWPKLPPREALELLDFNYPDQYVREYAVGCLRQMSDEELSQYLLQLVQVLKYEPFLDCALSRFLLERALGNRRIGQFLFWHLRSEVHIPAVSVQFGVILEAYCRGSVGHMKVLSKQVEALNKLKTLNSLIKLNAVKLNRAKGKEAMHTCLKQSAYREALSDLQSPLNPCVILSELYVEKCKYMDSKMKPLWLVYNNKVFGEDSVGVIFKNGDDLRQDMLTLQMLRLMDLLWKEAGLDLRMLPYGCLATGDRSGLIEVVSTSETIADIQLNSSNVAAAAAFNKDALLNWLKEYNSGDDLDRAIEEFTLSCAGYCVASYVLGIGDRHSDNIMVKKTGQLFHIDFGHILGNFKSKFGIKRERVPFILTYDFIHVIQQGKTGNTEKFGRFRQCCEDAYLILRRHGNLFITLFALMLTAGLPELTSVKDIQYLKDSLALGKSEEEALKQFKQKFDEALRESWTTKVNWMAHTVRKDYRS

MCF7 [22] = test: Antiproliferative activity against human MCF7 cells assessed as reduction in cell viability incubated for 24 to 48 hrs by CCK-8 assay; type: functional, cell-based
Cytochrome P450 2C9 = Cytochrome P450 2C9 (Homo sapiens, UniProt P11712); test: Inhibition of CYP2C9 in human liver microsomes using tolbutamide as substrate pre-incubated for 30 mins followed by substrate addition and measured after 15 mins in presence of NADPH by LC/MS analysis; type: ADME, Microsome
[23] = Metabolic stability in Sprague-Dawley rat plasma assessed as compound remaining measured upto 3 hrs by LC-MS/MS analysis; type: ADME, cell-free
HCT-116 [24] = test: Antiproliferative activity against human HCT-116 cells assessed as inhibition of colony formation at 6 uM incubated for 48 hrs by crystal violet staining based assay; type: functional, cell-based
HCT-116 [25] = test: Antiproliferative activity against human HCT-116 cells assessed as reduction in cell viability incubated for 48 hrs by CCK-8 assay; type: functional, cell-based; settings: dose 20-80 µM
HCT-116 [26] = test: Antiproliferative activity against human HCT-116 cells assessed as reduction in cell viability incubated for 24 to 48 hrs by CCK-8 assay; type: functional, cell-based

IC50 [1]: 0.011 µM | CLH [2]: 5 µL/min/mg | Vd [3]: 5.6 L/kg | IC50 (MCF7 [4]): 3.76 µM | AUC(0-inf) [5]: 7520 ng·h/mL | remaining at 1 h, 5 ug/ml [6]: 86.2% | IC50 [7]: 0.402 µM | IC50 (Cytochrome P450 3A4): > 10 µM | IC50 (MDA-MB-231): 15.8 µM | half-life [9]: 5.9 h | IC50 [10]: 0.328 µM | MRT last at 24 h [11]: 6.5 h | AUC(0-t) at 24 h [12]: 7120 ng·h/mL | IC50 (Cytochrome P450 2D6): > 10 µM | IC50 (Cytochrome P450 2C19): > 10 µM | IC50 (Cytochrome P450 1A2): > 10 µM | Cmax [13]: 1680 ng/mL | MRT inf [14]: 7.9 h | IC50 (SW-620): 9.99 µM | IC50 (HCT-116 [15]): 14.1 µM | clearance [17]: 11.7 mL/min/kg | half-life at 5 ug/ml [18]: 4.44 h | Stability [19]: Stable | IC50 [21]: 0.594 µM | IC50 (MCF7 [22]): 0.64 µM | IC50 (Cytochrome P450 2C9): > 10 µM | Stability [23]: Stable | IC50 (HCT-116 [26]): 5.8 µM
Compound: Nc1nc2cc(-c3ccc4ncc(C(=O)N5CCOCC5)n4c3)ccc2o1 [SERABELISIB]
IC50 [8]: 34.1 µM | Activity (HCT-116 [16]): 11.68% | IC50 [20]: 29 µM | Activity (HCT-116 [24]): Active | Activity (HCT-116 [25]): Dose-Dependent Effect
